# In article PMC12670405, “Second-Generation AURKA-Targeting PROTACs: Structural Optimization toward in Vivo Degradation in Neuroblastoma” (Journal of Medicinal Chemistry, 2025):
# Experiments:
# Assay in all cases: KINOMEscan scanMAX
# Format in all cases: binding
# Conditions in all cases: read-out: Percent Control
# ULK3 = target: T1, ULK3 (Homo sapiens, UniProt Q6PHR2)
# T1 construct: purchased Eurofins Discovery (DiscoverX KINOMEscan scanMAX)
# Procedure: (§1) The kinome-wide binding assay was performed by Eurofins Discovery using the scanMAX screening platform. More information can be found on the Eurofins Discovery Web site.
# FGFR2 = target: T2, FGFR2 (Homo sapiens, UniProt P21802)
# T2 construct: purchased Eurofins Discovery (DiscoverX KINOMEscan scanMAX)
# Procedure: as §1
# ERBB3 = target: T3, ERBB3 (Homo sapiens, UniProt P21860)
# T3 construct: purchased Eurofins Discovery (DiscoverX KINOMEscan scanMAX)
# Procedure: as §1
# MYO3B = target: T4, MYO3B (Homo sapiens, UniProt Q8WXR4)
# T4 construct: purchased Eurofins Discovery (DiscoverX KINOMEscan scanMAX)
# Procedure: as §1
# MAP4K3 = target: T5, MAP4K3 (Homo sapiens, UniProt Q8IVH8)
# T5 construct: purchased Eurofins Discovery (DiscoverX KINOMEscan scanMAX)
# Procedure: as §1
# CAMK2D = target: T6, CAMK2D (Homo sapiens, UniProt Q13557)
# T6 construct: purchased Eurofins Discovery (DiscoverX KINOMEscan scanMAX)
# Procedure: as §1
# ULK1 = target: T7, ULK1 (Homo sapiens, UniProt O75385)
# T7 construct: purchased Eurofins Discovery (DiscoverX KINOMEscan scanMAX)
# Procedure: as §1
# IKK-alpha = target: T8, IKK-alpha (Homo sapiens, UniProt O15111)
# T8 construct: purchased Eurofins Discovery (DiscoverX KINOMEscan scanMAX)
# Procedure: as §1
# OSR1 = target: T9, OSR1 (Homo sapiens, UniProt O95747)
# T9 construct: purchased Eurofins Discovery (DiscoverX KINOMEscan scanMAX)
# Procedure: as §1
# WEE1 = target: T10, WEE1 (Homo sapiens, UniProt P30291)
# T10 construct: purchased Eurofins Discovery (DiscoverX KINOMEscan scanMAX)
# Procedure: as §1
# RET(V804M) = target: T11, RET(V804M) (Homo sapiens, UniProt P07949, V804M)
# T11 construct: purchased Eurofins Discovery (DiscoverX KINOMEscan scanMAX)
# Procedure: as §1
# [1] = target: T12, ABL1(E255K)-phosphorylated (Homo sapiens, UniProt P00519, E255K)
# T12 construct: purchased Eurofins Discovery (DiscoverX KINOMEscan scanMAX)
# Procedure: as §1
# MAP3K4 = target: T13, MAP3K4 (Homo sapiens, UniProt Q9Y6R4)
# T13 construct: purchased Eurofins Discovery (DiscoverX KINOMEscan scanMAX)
# Procedure: as §1
# [2] = target: T14, RPS6KA5(Kin.Dom.1-N-terminal) (Homo sapiens, UniProt O75582)
# T14 construct: RPS6KA5(Kin.Dom.1-N-terminal); purchased Eurofins Discovery (DiscoverX KINOMEscan scanMAX)
# Procedure: as §1
# IGF1R = target: T15, IGF1R (Homo sapiens, UniProt P08069)
# T15 construct: purchased Eurofins Discovery (DiscoverX KINOMEscan scanMAX)
# Procedure: as §1
# VRK2 = target: T16, VRK2 (Homo sapiens, UniProt Q86Y07)
# T16 construct: purchased Eurofins Discovery (DiscoverX KINOMEscan scanMAX)
# Procedure: as §1
# [3] = target: T17, EGFR(L747-E749del, A750P) (Homo sapiens, UniProt P00533, A750P/DEL747-749)
# T17 construct: purchased Eurofins Discovery (DiscoverX KINOMEscan scanMAX)
# Procedure: as §1
# EPHA5 = target: T18, EPHA5 (Homo sapiens, UniProt P54756)
# T18 construct: purchased Eurofins Discovery (DiscoverX KINOMEscan scanMAX)
# Procedure: as §1
# RAF1 = target: T19, RAF1 (Homo sapiens, UniProt P04049)
# T19 construct: purchased Eurofins Discovery (DiscoverX KINOMEscan scanMAX)
# Procedure: as §1
# LRRK2(G2019S) = target: T20, LRRK2(G2019S) (Homo sapiens, UniProt Q5S007, G2019S)
# T20 construct: purchased Eurofins Discovery (DiscoverX KINOMEscan scanMAX)
# Procedure: as §1
# p38-alpha = target: T21, p38-alpha (Homo sapiens, UniProt Q16539)
# T21 construct: purchased Eurofins Discovery (DiscoverX KINOMEscan scanMAX)
# Procedure: as §1
# FLT4 = target: T22, FLT4 (Homo sapiens, UniProt P35916)
# T22 construct: purchased Eurofins Discovery (DiscoverX KINOMEscan scanMAX)
# Procedure: as §1
# CDK11 = target: T23, CDK11 (Homo sapiens, UniProt Q9BWU1)
# T23 construct: purchased Eurofins Discovery (DiscoverX KINOMEscan scanMAX)
# Procedure: as §1
# PAK2 = target: T24, PAK2 (Homo sapiens, UniProt Q13177)
# T24 construct: purchased Eurofins Discovery (DiscoverX KINOMEscan scanMAX)
# Procedure: as §1
# RIPK4 = target: T25, RIPK4 (Homo sapiens, UniProt P57078)
# T25 construct: purchased Eurofins Discovery (DiscoverX KINOMEscan scanMAX)
# Procedure: as §1
# EGFR = target: T26, EGFR (Homo sapiens, UniProt P00533)
# T26 construct: purchased Eurofins Discovery (DiscoverX KINOMEscan scanMAX)
# Procedure: as §1
# CDKL5 = target: T27, CDKL5 (Homo sapiens, UniProt O76039)
# T27 construct: purchased Eurofins Discovery (DiscoverX KINOMEscan scanMAX)
# Procedure: as §1
# PCTK2 = target: T28, PCTK2 (Homo sapiens, UniProt Q00537)
# T28 construct: purchased Eurofins Discovery (DiscoverX KINOMEscan scanMAX)
# Procedure: as §1
# GCN2(Kin.Dom.2,S808G) = target: T29, GCN2(Kin.Dom.2,S808G) (Homo sapiens, UniProt Q9P2K8, S808G)
# T29 construct: GCN2(Kin.Dom.2,S808G); purchased Eurofins Discovery (DiscoverX KINOMEscan scanMAX)
# Procedure: as §1
# DYRK2 = target: T30, DYRK2 (Homo sapiens, UniProt Q92630)
# T30 construct: purchased Eurofins Discovery (DiscoverX KINOMEscan scanMAX)
# Procedure: as §1
# [4] = target: T31, ABL1(T315I)-nonphosphorylated (Homo sapiens, UniProt P00519, T315I)
# T31 construct: purchased Eurofins Discovery (DiscoverX KINOMEscan scanMAX)
# Procedure: as §1
# PYK2 = target: T32, PYK2 (Homo sapiens, UniProt Q14289)
# T32 construct: purchased Eurofins Discovery (DiscoverX KINOMEscan scanMAX)
# Procedure: as §1
# T26 sequence (P00533 25-1210): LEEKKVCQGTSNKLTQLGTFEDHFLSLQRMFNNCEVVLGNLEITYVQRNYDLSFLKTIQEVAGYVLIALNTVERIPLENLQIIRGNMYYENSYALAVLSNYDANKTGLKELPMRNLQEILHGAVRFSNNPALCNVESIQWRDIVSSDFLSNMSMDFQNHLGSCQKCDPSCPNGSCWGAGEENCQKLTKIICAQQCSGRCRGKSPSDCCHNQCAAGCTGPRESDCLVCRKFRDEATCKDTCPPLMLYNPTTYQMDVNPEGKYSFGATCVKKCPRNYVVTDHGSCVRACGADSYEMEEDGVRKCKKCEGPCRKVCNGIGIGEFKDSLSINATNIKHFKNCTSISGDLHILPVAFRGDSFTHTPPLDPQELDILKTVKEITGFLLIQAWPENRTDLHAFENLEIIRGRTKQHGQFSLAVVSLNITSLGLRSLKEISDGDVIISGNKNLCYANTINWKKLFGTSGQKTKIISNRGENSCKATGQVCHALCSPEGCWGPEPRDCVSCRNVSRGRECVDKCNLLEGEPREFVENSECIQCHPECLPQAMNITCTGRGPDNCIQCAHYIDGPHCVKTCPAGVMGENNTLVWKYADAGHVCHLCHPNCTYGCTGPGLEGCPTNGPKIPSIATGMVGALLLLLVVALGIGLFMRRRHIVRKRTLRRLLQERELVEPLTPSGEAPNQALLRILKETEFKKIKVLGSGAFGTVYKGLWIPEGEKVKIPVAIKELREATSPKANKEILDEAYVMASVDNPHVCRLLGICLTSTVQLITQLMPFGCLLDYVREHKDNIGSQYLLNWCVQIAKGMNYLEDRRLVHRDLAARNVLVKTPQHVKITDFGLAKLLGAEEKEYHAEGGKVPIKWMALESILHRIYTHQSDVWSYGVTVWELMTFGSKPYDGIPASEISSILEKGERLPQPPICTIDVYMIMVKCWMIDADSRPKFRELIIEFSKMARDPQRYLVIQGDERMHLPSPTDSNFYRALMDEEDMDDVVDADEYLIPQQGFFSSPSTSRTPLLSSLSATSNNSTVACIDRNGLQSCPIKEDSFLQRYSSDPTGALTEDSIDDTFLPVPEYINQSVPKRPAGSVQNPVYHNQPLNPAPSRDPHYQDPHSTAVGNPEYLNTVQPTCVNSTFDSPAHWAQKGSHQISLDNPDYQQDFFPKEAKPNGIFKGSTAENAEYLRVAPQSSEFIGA
# T6 sequence (Q13557 whole entry): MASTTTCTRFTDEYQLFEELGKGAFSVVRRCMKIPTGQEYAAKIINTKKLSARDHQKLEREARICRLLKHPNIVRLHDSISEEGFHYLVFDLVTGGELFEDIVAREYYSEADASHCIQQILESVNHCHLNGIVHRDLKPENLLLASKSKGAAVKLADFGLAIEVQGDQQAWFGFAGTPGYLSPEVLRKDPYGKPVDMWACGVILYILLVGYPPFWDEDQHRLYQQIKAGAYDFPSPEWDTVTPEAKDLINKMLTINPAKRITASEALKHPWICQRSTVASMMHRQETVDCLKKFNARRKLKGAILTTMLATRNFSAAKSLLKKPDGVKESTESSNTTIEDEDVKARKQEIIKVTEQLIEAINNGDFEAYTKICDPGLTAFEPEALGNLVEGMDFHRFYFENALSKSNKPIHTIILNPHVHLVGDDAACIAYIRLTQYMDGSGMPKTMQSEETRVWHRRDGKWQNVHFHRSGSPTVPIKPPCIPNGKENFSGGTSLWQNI
# T1 sequence (Q6PHR2 whole entry): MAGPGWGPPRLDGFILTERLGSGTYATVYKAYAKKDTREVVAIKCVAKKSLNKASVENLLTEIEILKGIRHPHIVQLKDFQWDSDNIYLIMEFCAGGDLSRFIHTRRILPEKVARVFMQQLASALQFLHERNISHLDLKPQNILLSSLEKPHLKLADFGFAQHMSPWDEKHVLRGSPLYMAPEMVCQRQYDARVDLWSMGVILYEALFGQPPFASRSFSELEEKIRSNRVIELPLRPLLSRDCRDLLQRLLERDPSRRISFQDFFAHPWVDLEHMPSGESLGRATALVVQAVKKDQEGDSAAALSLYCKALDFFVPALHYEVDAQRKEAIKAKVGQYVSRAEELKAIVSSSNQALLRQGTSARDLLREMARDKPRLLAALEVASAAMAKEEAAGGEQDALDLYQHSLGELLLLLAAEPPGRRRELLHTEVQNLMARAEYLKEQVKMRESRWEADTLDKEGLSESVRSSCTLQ
# T9 sequence (O95747 whole entry): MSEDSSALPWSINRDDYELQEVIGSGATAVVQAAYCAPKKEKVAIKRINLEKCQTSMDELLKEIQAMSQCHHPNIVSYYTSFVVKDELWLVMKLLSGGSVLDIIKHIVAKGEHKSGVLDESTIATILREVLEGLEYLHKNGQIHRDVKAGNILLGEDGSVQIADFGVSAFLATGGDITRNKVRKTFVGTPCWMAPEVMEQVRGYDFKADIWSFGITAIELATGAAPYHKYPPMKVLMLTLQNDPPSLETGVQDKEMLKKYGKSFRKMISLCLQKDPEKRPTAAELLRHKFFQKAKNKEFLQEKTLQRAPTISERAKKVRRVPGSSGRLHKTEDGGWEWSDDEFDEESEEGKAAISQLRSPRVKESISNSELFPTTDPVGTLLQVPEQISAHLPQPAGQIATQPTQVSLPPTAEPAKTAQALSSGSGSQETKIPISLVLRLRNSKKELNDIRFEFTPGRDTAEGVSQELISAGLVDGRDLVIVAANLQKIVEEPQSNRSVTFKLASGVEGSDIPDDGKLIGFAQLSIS
# T7 sequence (O75385 whole entry): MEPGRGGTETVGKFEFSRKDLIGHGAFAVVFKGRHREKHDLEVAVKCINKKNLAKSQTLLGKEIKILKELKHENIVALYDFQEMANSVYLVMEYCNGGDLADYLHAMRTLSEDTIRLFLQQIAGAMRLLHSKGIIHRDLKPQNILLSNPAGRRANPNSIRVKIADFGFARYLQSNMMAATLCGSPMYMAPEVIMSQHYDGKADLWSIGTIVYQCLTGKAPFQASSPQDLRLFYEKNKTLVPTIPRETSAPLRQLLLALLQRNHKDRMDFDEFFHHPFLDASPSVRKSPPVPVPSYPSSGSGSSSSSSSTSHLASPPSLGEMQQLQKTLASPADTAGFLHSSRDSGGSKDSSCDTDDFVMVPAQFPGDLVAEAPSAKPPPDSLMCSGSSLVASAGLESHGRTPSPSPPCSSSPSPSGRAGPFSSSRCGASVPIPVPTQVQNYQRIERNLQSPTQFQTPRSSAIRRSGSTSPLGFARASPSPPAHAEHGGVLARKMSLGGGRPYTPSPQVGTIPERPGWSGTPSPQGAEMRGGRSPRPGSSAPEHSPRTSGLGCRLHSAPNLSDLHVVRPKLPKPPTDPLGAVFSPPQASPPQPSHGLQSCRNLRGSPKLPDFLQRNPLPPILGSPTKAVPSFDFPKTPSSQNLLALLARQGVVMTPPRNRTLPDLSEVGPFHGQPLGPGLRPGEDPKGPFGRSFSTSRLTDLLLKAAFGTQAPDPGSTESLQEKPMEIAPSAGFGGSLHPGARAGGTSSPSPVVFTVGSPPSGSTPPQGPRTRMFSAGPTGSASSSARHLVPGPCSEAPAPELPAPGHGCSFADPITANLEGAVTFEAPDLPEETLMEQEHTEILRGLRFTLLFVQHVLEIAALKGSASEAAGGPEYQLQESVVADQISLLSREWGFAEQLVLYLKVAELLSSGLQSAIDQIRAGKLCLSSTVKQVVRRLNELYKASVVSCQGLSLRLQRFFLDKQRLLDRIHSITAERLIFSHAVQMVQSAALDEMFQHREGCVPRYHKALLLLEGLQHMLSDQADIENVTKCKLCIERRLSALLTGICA
# T22 sequence (P35916 25-1363): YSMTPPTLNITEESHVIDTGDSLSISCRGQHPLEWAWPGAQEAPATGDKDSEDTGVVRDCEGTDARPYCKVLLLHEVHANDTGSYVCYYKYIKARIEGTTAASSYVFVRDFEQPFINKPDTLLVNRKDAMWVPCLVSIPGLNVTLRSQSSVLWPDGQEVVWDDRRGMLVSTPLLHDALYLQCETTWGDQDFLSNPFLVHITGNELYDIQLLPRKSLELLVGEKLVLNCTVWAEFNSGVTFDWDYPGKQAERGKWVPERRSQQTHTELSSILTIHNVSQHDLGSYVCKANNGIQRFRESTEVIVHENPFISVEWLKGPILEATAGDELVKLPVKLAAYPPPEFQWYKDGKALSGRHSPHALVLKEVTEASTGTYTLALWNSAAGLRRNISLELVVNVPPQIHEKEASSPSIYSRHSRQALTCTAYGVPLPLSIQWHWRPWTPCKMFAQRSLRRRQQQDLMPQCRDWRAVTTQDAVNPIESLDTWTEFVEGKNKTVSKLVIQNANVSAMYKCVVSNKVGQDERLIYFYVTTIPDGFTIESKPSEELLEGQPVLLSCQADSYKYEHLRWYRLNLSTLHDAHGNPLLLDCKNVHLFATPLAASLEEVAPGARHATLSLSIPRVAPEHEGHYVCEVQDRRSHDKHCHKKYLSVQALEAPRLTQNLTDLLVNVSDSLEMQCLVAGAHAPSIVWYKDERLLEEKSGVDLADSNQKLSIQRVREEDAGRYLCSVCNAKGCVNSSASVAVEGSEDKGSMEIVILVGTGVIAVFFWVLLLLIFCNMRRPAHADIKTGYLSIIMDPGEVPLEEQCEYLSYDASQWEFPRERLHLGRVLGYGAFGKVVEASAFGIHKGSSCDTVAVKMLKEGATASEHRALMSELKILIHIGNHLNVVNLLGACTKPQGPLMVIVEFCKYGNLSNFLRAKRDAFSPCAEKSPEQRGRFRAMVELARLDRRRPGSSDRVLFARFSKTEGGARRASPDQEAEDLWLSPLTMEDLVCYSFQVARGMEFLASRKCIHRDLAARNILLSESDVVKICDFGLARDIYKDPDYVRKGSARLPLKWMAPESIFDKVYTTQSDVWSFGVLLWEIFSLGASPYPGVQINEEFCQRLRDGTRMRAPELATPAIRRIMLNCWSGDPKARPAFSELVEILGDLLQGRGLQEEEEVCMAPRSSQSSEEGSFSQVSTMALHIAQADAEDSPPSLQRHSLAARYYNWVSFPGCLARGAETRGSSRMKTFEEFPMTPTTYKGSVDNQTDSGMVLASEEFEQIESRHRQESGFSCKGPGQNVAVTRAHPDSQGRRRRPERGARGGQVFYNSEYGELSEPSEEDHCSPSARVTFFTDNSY
compound,measurement,setting,value
Cc1cc(Nc2ccc(F)c(CC3(C(=O)N4CCC(F)(CN5CCN(c6ccc(N7CCC(=O)NC7=O)cn6)CC5)CC4)CCN(Cc4cccc(Cl)c4F)CC3)n2)n[nH]1 [SK5527],remaining binding at 0.1 µM,ULK3; 100 nM,85%
same,remaining binding at 1 µM,ULK3; 1000 nM,86%
same,remaining binding at 0.1 µM,FGFR2; 100 nM,100%
same,remaining binding at 1 µM,FGFR2; 1000 nM,90%
same,remaining binding at 0.1 µM,ERBB3; 100 nM,100%
same,remaining binding at 1 µM,ERBB3; 1000 nM,100%
same,remaining binding at 0.1 µM,MYO3B; 100 nM,100%
same,remaining binding at 1 µM,MYO3B; 1000 nM,100%
same,remaining binding at 0.1 µM,MAP4K3; 100 nM,82%
same,remaining binding at 1 µM,MAP4K3; 1000 nM,72%
same,remaining binding at 0.1 µM,CAMK2D; 100 nM,95%
same,remaining binding at 1 µM,CAMK2D; 1000 nM,93%
same,remaining binding at 0.1 µM,ULK1; 100 nM,92%
same,remaining binding at 1 µM,ULK1; 1000 nM,91%
same,remaining binding at 0.1 µM,IKK-alpha; 100 nM,100%
same,remaining binding at 1 µM,IKK-alpha; 1000 nM,100%
same,remaining binding at 0.1 µM,OSR1; 100 nM,100%
same,remaining binding at 1 µM,OSR1; 1000 nM,97%
same,remaining binding at 0.1 µM,WEE1; 100 nM,99%
same,remaining binding at 1 µM,WEE1; 1000 nM,87%
same,remaining binding at 0.1 µM,RET(V804M); 100 nM,85%
same,remaining binding at 1 µM,RET(V804M); 1000 nM,65%
same,remaining binding at 0.1 µM,[1]; 100 nM,88%
same,remaining binding at 1 µM,[1]; 1000 nM,62%
same,remaining binding at 0.1 µM,MAP3K4; 100 nM,72%
same,remaining binding at 1 µM,MAP3K4; 1000 nM,87%
same,remaining binding at 0.1 µM,[2]; 100 nM,95%
same,remaining binding at 1 µM,[2]; 1000 nM,100%
same,remaining binding at 0.1 µM,IGF1R; 100 nM,87%
same,remaining binding at 1 µM,IGF1R; 1000 nM,89%
same,remaining binding at 0.1 µM,VRK2; 100 nM,82%
same,remaining binding at 1 µM,VRK2; 1000 nM,77%
same,remaining binding at 0.1 µM,[3]; 100 nM,100%
same,remaining binding at 1 µM,[3]; 1000 nM,97%
same,remaining binding at 0.1 µM,EPHA5; 100 nM,100%
same,remaining binding at 1 µM,EPHA5; 1000 nM,93%
same,remaining binding at 0.1 µM,RAF1; 100 nM,100%
same,remaining binding at 1 µM,RAF1; 1000 nM,100%
same,remaining binding at 0.1 µM,LRRK2(G2019S); 100 nM,73%
same,remaining binding at 1 µM,LRRK2(G2019S); 1000 nM,67%
same,remaining binding at 0.1 µM,p38-alpha; 100 nM,100%
same,remaining binding at 1 µM,p38-alpha; 1000 nM,100%
same,remaining binding at 0.1 µM,FLT4; 100 nM,76%
same,remaining binding at 1 µM,FLT4; 1000 nM,40%
same,remaining binding at 0.1 µM,CDK11; 100 nM,92%
same,remaining binding at 1 µM,CDK11; 1000 nM,85%
same,remaining binding at 0.1 µM,PAK2; 100 nM,100%
same,remaining binding at 1 µM,PAK2; 1000 nM,79%
same,remaining binding at 0.1 µM,RIPK4; 100 nM,67%
same,remaining binding at 1 µM,RIPK4; 1000 nM,46%
same,remaining binding at 0.1 µM,EGFR; 100 nM,91%
same,remaining binding at 1 µM,EGFR; 1000 nM,82%
same,remaining binding at 0.1 µM,CDKL5; 100 nM,94%
same,remaining binding at 1 µM,CDKL5; 1000 nM,81%
same,remaining binding at 0.1 µM,PCTK2; 100 nM,100%
same,remaining binding at 1 µM,PCTK2; 1000 nM,100%
same,remaining binding at 0.1 µM,"GCN2(Kin.Dom.2,S808G); 100 nM",98%
same,remaining binding at 1 µM,"GCN2(Kin.Dom.2,S808G); 1000 nM",100%
same,remaining binding at 0.1 µM,DYRK2; 100 nM,100%
same,remaining binding at 1 µM,DYRK2; 1000 nM,80%
same,remaining binding at 0.1 µM,[4]; 100 nM,24%
same,remaining binding at 1 µM,[4]; 1000 nM,0%
same,remaining binding at 0.1 µM,PYK2; 100 nM,91%
same,remaining binding at 1 µM,PYK2; 1000 nM,66%
